{"source": "patent US7927789B1", "about": "“Self-referencing biodetection method and patterned bioassays” (SRU Biosystems, Inc., priority 2002, dated 2011)", "system": "gelatin", "experiment": "Collagenase cleavage of patterned gelatin on biosensor, BIND imaging", "format": "biochemical", "conditions": "1.5 mg/ml collagenase; gelatin versus regions without gelatin (rabbit IgG)", "procedure": "A pattern of gelatin (1 mg/ml, Sigma) was applied to a biosensor with a micropipette tip in the shape of the letters “SRU.” The gelatin was allowed to incubate on the biosensor surface for about 60 minutes before a thorough rinse with water. Next, the entire biosensor surface was exposed to a 1 mg/ml solution of rabbit IgG (Sigma) that attached a uniform thin layer of protein across the biosensor so that the peak wavelength value of the biosensor would be roughly equivalent in all locations. After a second rinse in water, the entire biosensor was exposed to a 1.5 mg/ml solution of collagenase, a specific binding partner, for about 80 minutes. The collagenase is an enzyme that selectively cleaves gelatin, thus selectively removing protein from the surface only in regions where the gelatin was applied. […] As a consequence of this selective interaction, an image is measured where the word “SRU” appears as a region with lower peak wavelength value compared to surrounding regions, as shown in FIG. 10.", "note": "“Also recorded” adds a separate entry of the source."}
{"substance": "collagenase", "values": [{"measurement": "peak wavelength value change in gelatin regions after collagenase", "value": "peak wavelength value in the gelatin regions is reduced relative to the regions without gelatin; also recorded: peak wavelength value in the gelatin reaction surfaces is reduced relative to the reference surfaces without gelatin"}]}
